Data reported in ChEMBL document CHEMBL1201862, “PubChem BioAssay data set” (2004).
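In this assay, cells in 96-well plates receive the compound at five concentrations for 48 hours. Endpoints are linearly interpolated between the surrounding concentrations. At the GI50, growth is halved.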 Active and inactive are the calls of the source. No stated cut-off is given here; in the data, active = GI50 up to about 1.1 µM and inactive = higher.

Columns and labels:
Assay in all cases: NCI anticancer screen, dose series, 48 h
[1] = test system: COLO 205
[2] = test system: OVCAR-5
[3] = test system: DU-145
[4] = test system: T47D
[5] = test system: NCI-H23
[6] = test system: OVCAR-4
[7] = test system: HCC 2998
[8] = test system: TK-10
[9] = test system: UACC-62
[10] = test system: NCI/ADR-RES
[11] = test system: SK-MEL-5
[12] = test system: SF-539
[13] = test system: ACHN
[14] = test system: CCRF-CEM
[15] = test system: HCT-15
[16] = test system: NCI-H460
[17] = test system: Hs-578T
[18] = test system: OVCAR-8
[19] = test system: HT-29
[20] = test system: K562

SMILES | GI50 [1] | GI50 [2] | GI50 [3] | GI50 [4] | GI50 [5] | GI50 [6] | GI50 [7] | GI50 [8] | GI50 [9] | GI50 [10] | GI50 [11] | GI50 [12] | GI50 [13] | GI50 [14] | GI50 [15] [µM] | GI50 [16] | GI50 [17] | GI50 [18] | GI50 [19] | GI50 [20]
O=C1Oc2ccccc2C1C/C(=N\Nc1ccccc1)c1ccccc1O (centres undefined) | 15 µM (inactive) | > 100 µM (inactive) | 40.7 µM (inactive) | 11.3 µM (inactive) | 22.2 µM (inactive) | 32.7 µM (inactive) | 34.8 µM (inactive) | 48.9 µM (inactive) | 33.9 µM (inactive) | 20.8 µM (inactive) | 33.9 µM (inactive) | 53 µM (inactive) | 16.6 µM (inactive) | 62.1 µM (inactive) | 34.3 | 34.4 µM (inactive) | 74.5 µM (inactive) | 32.4 µM (inactive) | 28.4 µM (inactive) | –
O=C(/C=C/c1ccc(O)c(O)c1O)OCCc1ccccc1 | 27.8 µM (inactive) | 41.9 µM (inactive) | > 100 µM (inactive) | 82.2 µM (inactive) | 22.9 µM (inactive) | 15.9 µM (inactive) | > 100 µM (inactive) | 83.2 µM (inactive) | 34 µM (inactive) | 29.8 µM (inactive) | > 100 µM (inactive) | 37.3 µM (inactive) | 39.2 µM (inactive) | – | 23.4 | 21.6 µM (inactive) | > 100 µM (inactive) | – | 22.7 µM (inactive) | 11.6 µM (inactive)
CC(=O)C1=C(C)N(c2ccc(C)cc2)C2(O)C3=C(C(=O)c4ccccc4C3=O)C(O)=CC12Cl (centres undefined) | 27.5 µM (inactive) | 25.5 µM (inactive) | 24.7 µM (inactive) | 26.7 µM (inactive) | 12.7 µM (inactive) | 17.1 µM (inactive) | 12.7 µM (inactive) | 28.4 µM (inactive) | 5.11 µM (inactive) | 5.65 µM (inactive) | 6.92 µM (inactive) | 12.2 µM (inactive) | 15.4 µM (inactive) | – | 19.8 | 20.9 µM (inactive) | 6.28 µM (inactive) | 14.1 µM (inactive) | 22.3 µM (inactive) | 7.43 µM (inactive)
O=C(Nc1cccc(F)c1)c1cc2ccc(O)cc2o/c1=N\c1cccc(F)c1 | > 100 µM (inactive) | 34 µM (inactive) | 4.27 µM (inactive) | 3.27 µM (inactive) | 2.34 µM (inactive) | 3.59 µM (inactive) | 27.1 µM (inactive) | – | 5.57 µM (inactive) | 3.4 µM (inactive) | 3.6 µM (inactive) | 19.8 µM (inactive) | 4.88 µM (inactive) | 2.22 µM (inactive) | 3.15 | 4.26 µM (inactive) | 3.09 µM (inactive) | 2.31 µM (inactive) | > 100 µM (inactive) | 2.38 µM (inactive)
CC(Oc1ccc(Cl)cc1Cl)C(=O)NN1C(=O)CC(=O)N(c2ccccc2)C1=S (centres undefined) | 33.7 µM (inactive) | > 100 µM (inactive) | 53.3 µM (inactive) | 43.2 µM (inactive) | 37.2 µM (inactive) | 45.8 µM (inactive) | 63.4 µM (inactive) | > 100 µM (inactive) | 37.5 µM (inactive) | 39.9 µM (inactive) | 47.4 µM (inactive) | > 100 µM (inactive) | 48.1 µM (inactive) | – | 38.2 | 62.8 µM (inactive) | > 100 µM (inactive) | 50.2 µM (inactive) | 70.1 µM (inactive) | 41.7 µM (inactive)
C#CCOC(=O)C(N)CCCNC(=N)N (centres undefined) | > 100 µM (inactive) | > 100 µM (inactive) | > 100 µM (inactive) | > 100 µM (inactive) | > 100 µM (inactive) | > 100 µM (inactive) | > 100 µM (inactive) | > 100 µM (inactive) | – | > 100 µM (inactive) | > 100 µM (inactive) | > 100 µM (inactive) | > 100 µM (inactive) | > 100 µM (inactive) | > 100 | > 100 µM (inactive) | > 100 µM (inactive) | > 100 µM (inactive) | > 100 µM (inactive) | –
CCCNC(=O)N1CC(CN2CCN(c3ccccc3)CC2)O/C1=N/C(=O)Nc1ccccc1 (centres undefined) | 33.3 µM (inactive) | > 100 µM (inactive) | 57.9 µM (inactive) | 18.2 µM (inactive) | 73.8 µM (inactive) | 90.4 µM (inactive) | > 100 µM (inactive) | 82.4 µM (inactive) | 99.3 µM (inactive) | 50.6 µM (inactive) | 40.8 µM (inactive) | – | > 100 µM (inactive) | – | – | > 100 µM (inactive) | > 100 µM (inactive) | – | 68.7 µM (inactive) | > 100 µM (inactive)
Cc1cc(S(=O)(=O)/N=C(\NN)Nc2ccc(Cl)cc2)c(S)cc1Cl | 13.4 µM (inactive) | 1.81 µM (inactive) | 4.35 µM (inactive) | 3.4 µM (inactive) | – | 13.2 µM (inactive) | 11.2 µM (inactive) | 21.3 µM (inactive) | 1.5 µM (inactive) | 2.71 µM (inactive) | 4.94 µM (inactive) | 14.1 µM (inactive) | 3.06 µM (inactive) | 3.28 µM (inactive) | 1.14 | 4.46 µM (inactive) | 1.17 µM (inactive) | 12.4 µM (inactive) | 16.1 µM (inactive) | 2.13 µM (inactive)
C(=C\C(SCc1ccccc1)SCc1ccccc1)/c1ccccc1 | > 10 µM (inactive) | – | > 10 µM (inactive) | > 10 µM (inactive) | > 10 µM (inactive) | > 10 µM (inactive) | > 10 µM (inactive) | > 10 µM (inactive) | > 10 µM (inactive) | > 10 µM (inactive) | > 10 µM (inactive) | > 10 µM (inactive) | > 10 µM (inactive) | > 10 µM (inactive) | > 10 | > 10 µM (inactive) | > 10 µM (inactive) | > 10 µM (inactive) | > 10 µM (inactive) | > 10 µM (inactive)
Cc1nc(N)sc1C(=O)Nc1nc[nH]n1 | > 100 µM (inactive) | > 100 µM (inactive) | > 100 µM (inactive) | > 100 µM (inactive) | > 100 µM (inactive) | > 100 µM (inactive) | > 100 µM (inactive) | > 100 µM (inactive) | > 100 µM (inactive) | > 100 µM (inactive) | > 100 µM (inactive) | > 100 µM (inactive) | > 100 µM (inactive) | – | > 100 | > 100 µM (inactive) | > 100 µM (inactive) | > 100 µM (inactive) | > 100 µM (inactive) | > 100 µM (inactive)
CC(=O)CC12NC(=O)N(C)N=C1N(C)C(=O)N(C)C2=O (centres undefined) | 52.4 µM (inactive) | > 100 µM (inactive) | > 100 µM (inactive) | 30.8 µM (inactive) | 38.7 µM (inactive) | 71.8 µM (inactive) | 82.8 µM (inactive) | > 100 µM (inactive) | 23.9 µM (inactive) | 29.4 µM (inactive) | – | 25.7 µM (inactive) | 74.6 µM (inactive) | 39.2 µM (inactive) | 57.7 | 65.9 µM (inactive) | > 100 µM (inactive) | 32.1 µM (inactive) | 35.9 µM (inactive) | 40.1 µM (inactive)
Oc1cc(-c2cccc(F)c2)nc2cc3c(cc12)OCO3 | 0.0743 µM (active) | 0.345 µM (active) | 0.0524 µM (active) | > 100 µM (inactive) | 0.294 µM (active) | 1.26 µM (inactive) | 0.0705 µM (active) | 0.879 µM (active) | 0.0345 µM (active) | 0.0199 µM (active) | 0.03 µM (active) | 0.0573 µM (active) | 0.119 µM (active) | 0.0507 µM (active) | 0.0711 | 0.07 µM (active) | 0.0226 µM (active) | 0.0347 µM (active) | – | 0.0653 µM (active)
CCCCCCCCCCCCC(=O)NCC(=O)NC(Cc1ccccc1)C(=O)Oc1ccc([N+](=O)[O-])cc1 (centres undefined) | 16.7 µM (inactive) | > 100 µM (inactive) | > 100 µM (inactive) | 92.9 µM (inactive) | 57.7 µM (inactive) | – | 44.4 µM (inactive) | > 100 µM (inactive) | 60.3 µM (inactive) | 57.1 µM (inactive) | 72.4 µM (inactive) | 91.8 µM (inactive) | > 100 µM (inactive) | 29.4 µM (inactive) | 38.1 | > 100 µM (inactive) | 75.3 µM (inactive) | 48.2 µM (inactive) | 82.2 µM (inactive) | –
[N-]=[N+]=Nc1nc2ccccc2c(N=[N+]=[N-])c1Cl | > 100 µM (inactive) | > 100 µM (inactive) | > 100 µM (inactive) | > 100 µM (inactive) | > 100 µM (inactive) | 68.9 µM (inactive) | > 100 µM (inactive) | > 100 µM (inactive) | 98.4 µM (inactive) | > 100 µM (inactive) | > 100 µM (inactive) | 96.8 µM (inactive) | > 100 µM (inactive) | > 100 µM (inactive) | > 100 | > 100 µM (inactive) | 31.6 µM (inactive) | – | > 100 µM (inactive) | > 100 µM (inactive)
CNCC(SC)c1ccc(O)c(O)c1 (centres undefined) | 17.1 µM (inactive) | > 100 µM (inactive) | 17.9 µM (inactive) | 23.6 µM (inactive) | 31 µM (inactive) | 17 µM (inactive) | 16.7 µM (inactive) | 19.1 µM (inactive) | 41.6 µM (inactive) | 34.9 µM (inactive) | 52.8 µM (inactive) | – | 17.7 µM (inactive) | 2.67 µM (inactive) | 30.8 | 16.7 µM (inactive) | 66.1 µM (inactive) | 19.2 µM (inactive) | 30.7 µM (inactive) | 23.7 µM (inactive)
